target: T1, Serine/threonine-protein kinase mTOR (Homo sapiens, UniProt P42345); test: Inhibition of mTOR (unknown origin)

| IC50 | SMILES |
| --- | --- |
| 3.8 nM | CCNC(=O)Nc1ccc(-c2nc3c(c(N4CCOC[C@@H]4C)n2)CCN(C2COC2)C3)cc1 [RG-7603] |

target: T2, Protein deacetylase HDAC6 (Homo sapiens, UniProt Q9UBN7); test: Inhibition of HDAC6 (unknown origin)
T2 sequence (Q9UBN7 whole entry): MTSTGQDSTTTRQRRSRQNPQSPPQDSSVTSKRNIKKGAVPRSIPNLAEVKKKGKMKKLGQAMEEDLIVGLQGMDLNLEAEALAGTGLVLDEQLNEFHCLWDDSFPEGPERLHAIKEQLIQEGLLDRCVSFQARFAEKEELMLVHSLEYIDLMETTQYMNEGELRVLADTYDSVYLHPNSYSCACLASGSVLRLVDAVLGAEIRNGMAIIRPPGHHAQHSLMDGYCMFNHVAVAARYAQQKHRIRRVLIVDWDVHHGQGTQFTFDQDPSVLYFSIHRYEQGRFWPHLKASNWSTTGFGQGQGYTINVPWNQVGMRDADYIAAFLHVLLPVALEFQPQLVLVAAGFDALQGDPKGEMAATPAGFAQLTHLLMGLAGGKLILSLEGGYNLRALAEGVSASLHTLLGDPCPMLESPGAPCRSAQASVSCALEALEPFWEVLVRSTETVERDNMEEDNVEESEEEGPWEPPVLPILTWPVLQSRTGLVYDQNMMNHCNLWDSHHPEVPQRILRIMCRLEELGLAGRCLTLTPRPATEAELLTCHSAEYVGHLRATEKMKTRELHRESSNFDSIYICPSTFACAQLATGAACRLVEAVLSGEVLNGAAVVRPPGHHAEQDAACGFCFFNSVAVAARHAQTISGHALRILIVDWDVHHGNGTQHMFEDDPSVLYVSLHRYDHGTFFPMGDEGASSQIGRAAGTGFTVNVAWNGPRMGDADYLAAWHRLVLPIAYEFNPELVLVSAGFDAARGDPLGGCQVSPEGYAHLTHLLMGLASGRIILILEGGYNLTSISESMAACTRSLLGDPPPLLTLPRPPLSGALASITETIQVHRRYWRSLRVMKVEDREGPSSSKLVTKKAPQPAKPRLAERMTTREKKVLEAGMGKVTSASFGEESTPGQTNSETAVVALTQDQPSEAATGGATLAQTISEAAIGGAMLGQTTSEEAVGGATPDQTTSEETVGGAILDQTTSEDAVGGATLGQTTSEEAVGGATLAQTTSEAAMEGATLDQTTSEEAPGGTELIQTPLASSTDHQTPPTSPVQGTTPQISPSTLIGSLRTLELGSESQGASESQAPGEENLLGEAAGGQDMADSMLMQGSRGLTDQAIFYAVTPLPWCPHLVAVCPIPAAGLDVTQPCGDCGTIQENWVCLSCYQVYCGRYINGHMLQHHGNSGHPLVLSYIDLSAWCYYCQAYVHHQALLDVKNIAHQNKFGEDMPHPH

| IC50 | SMILES |
| --- | --- |
| 2 nM | Cn1c(=O)n(-c2ccc(C(C)(C)C#N)cc2)c2c3cc(-c4cnc5ccccc5c4)ccc3ncc21 [DACTOLISIB] |

target: T1, Serine/threonine-protein kinase mTOR; test: Inhibition of mTOR (unknown origin) at 0.5 uM relative to control

| inhibition | SMILES |
| --- | --- |
| 10.6% | COc1cc(OC)c2c(N3CCC(F)(F)CC3)nc(-c3ccc(C(=O)NO)cc3)nc2c1 |
| 37.4% | O=C(NO)c1ccc(-c2nc(N3CCS(=O)(=O)CC3)c3ccccc3n2)cc1 |
| 44.9% | O=C(NO)c1ccc(-c2nc(N3CCSCC3)c3ccc(Cl)cc3n2)cc1 |
| 11.3% | O=C(NO)c1ccc(-c2nc(N3CCCC3)c3ccccc3n2)cc1 |
| 67.6% | COc1cc(OC)c2c(N3CCN(C)CC3)nc(-c3ccc(C(=O)NO)cc3)nc2c1 |
| 14.9% | O=C(NO)c1ccc(-c2nc(N3CCCCC3)c3ccc(Cl)cc3n2)cc1 |
| 9.7% | COc1cc(OC)c2c(N3CCCC3)nc(-c3ccc(C(=O)NO)cc3)nc2c1 |
| 18.3% | O=C(NO)c1ccc(-c2nc(N3CCCC3)c3ccc(Cl)cc3n2)cc1 |
| 57.2% | COc1cc(OC)c2c(N3CCOC[C@H]3C)nc(-c3ccc(C(=O)NO)cc3)nc2c1 |
| 95.4% | Cn1c(=O)n(-c2ccc(C(C)(C)C#N)cc2)c2c3cc(-c4cnc5ccccc5c4)ccc3ncc21 [DACTOLISIB] |
| 11.5% | COc1cc(OC)c2c(N3CCCCC3)nc(-c3ccc(C(=O)NO)cc3)nc2c1 |
| 55.4% | COc1cc(OC)c2c(N3CCOC[C@@H]3C)nc(-c3ccc(C(=O)NO)cc3)nc2c1 |
| 82.3% | C[C@H]1COCCN1c1nc(-c2ccc(C(=O)NO)cc2)nc2cc(Cl)ccc12 |
| 76.8% | CN1CCN(c2nc(-c3ccc(C(=O)NO)cc3)nc3ccccc23)CC1 |
| 67.3% | C[C@H]1COCCN1c1nc(-c2ccc(C(=O)NO)cc2)nc2ccccc12 |
| 39.7% | O=C(NO)c1ccc(-c2nc(N3CCS(=O)(=O)CC3)c3ccc(Cl)cc3n2)cc1 |
| 78.8% | C[C@@H]1COCCN1c1nc(-c2ccc(C(=O)NO)cc2)nc2cc(Cl)ccc12 |
| 33.8% | COc1cc(OC)c2c(N3CCSCC3)nc(-c3ccc(C(=O)NO)cc3)nc2c1 |
| 75.5% | O=C(NO)c1ccc(-c2nc(N3CCOCC3)c3ccc(Cl)cc3n2)cc1 |
| 44.7% | O=C(NO)c1ccc(-c2nc(N3CCSCC3)c3ccccc3n2)cc1 |
| 48.9% | COc1cc(OC)c2c(N3CCOCC3)nc(-c3ccc(C(=O)NO)cc3)nc2c1 |
| 60.1% | O=C(NO)c1ccc(-c2nc(N3CCOCC3)c3ccccc3n2)cc1 |
| 18.2% | O=C(NO)c1ccc(-c2nc(N3CCC(F)(F)CC3)c3ccc(Cl)cc3n2)cc1 |
| 18.4% | O=C(NO)c1ccc(-c2nc(N3CCC(F)(F)CC3)c3ccccc3n2)cc1 |
| 34.8% | COc1cc(OC)c2c(N3CCS(=O)(=O)CC3)nc(-c3ccc(C(=O)NO)cc3)nc2c1 |
| 23.6% | O=C(NO)c1ccc(-c2nc(N3CCCCC3)c3ccccc3n2)cc1 |
| 68.5% | C[C@@H]1COCCN1c1nc(-c2ccc(C(=O)NO)cc2)nc2ccccc12 |
